EP1401829B1, “NOVEL HETEROCYCLIC ANTIBACTERIAL COMPOUNDS” (Microbiotix, Inc., priority 2001, dated 2002)
Converted amounts (≈) assume the structure as drawn. Read-outs that look alike come from different tables or passages of the source.

Legend:
B. subtilis Pol IIIC = biological target: T1, B. subtilis Pol IIIC (Bacillus subtilis, UniProt P13267); experiment: Polymerase IIIC (Pol IIIC) assay, determination of Ki values; assay type: biochemical; conditions: Ki (µM) Pol IIIC, assay in absence of dGTP or dATP; Ki is the concentration that reduces control polymerase IIIC activity by 50 percent
T1 construct: made in house
T1 sequence (P13267 whole entry): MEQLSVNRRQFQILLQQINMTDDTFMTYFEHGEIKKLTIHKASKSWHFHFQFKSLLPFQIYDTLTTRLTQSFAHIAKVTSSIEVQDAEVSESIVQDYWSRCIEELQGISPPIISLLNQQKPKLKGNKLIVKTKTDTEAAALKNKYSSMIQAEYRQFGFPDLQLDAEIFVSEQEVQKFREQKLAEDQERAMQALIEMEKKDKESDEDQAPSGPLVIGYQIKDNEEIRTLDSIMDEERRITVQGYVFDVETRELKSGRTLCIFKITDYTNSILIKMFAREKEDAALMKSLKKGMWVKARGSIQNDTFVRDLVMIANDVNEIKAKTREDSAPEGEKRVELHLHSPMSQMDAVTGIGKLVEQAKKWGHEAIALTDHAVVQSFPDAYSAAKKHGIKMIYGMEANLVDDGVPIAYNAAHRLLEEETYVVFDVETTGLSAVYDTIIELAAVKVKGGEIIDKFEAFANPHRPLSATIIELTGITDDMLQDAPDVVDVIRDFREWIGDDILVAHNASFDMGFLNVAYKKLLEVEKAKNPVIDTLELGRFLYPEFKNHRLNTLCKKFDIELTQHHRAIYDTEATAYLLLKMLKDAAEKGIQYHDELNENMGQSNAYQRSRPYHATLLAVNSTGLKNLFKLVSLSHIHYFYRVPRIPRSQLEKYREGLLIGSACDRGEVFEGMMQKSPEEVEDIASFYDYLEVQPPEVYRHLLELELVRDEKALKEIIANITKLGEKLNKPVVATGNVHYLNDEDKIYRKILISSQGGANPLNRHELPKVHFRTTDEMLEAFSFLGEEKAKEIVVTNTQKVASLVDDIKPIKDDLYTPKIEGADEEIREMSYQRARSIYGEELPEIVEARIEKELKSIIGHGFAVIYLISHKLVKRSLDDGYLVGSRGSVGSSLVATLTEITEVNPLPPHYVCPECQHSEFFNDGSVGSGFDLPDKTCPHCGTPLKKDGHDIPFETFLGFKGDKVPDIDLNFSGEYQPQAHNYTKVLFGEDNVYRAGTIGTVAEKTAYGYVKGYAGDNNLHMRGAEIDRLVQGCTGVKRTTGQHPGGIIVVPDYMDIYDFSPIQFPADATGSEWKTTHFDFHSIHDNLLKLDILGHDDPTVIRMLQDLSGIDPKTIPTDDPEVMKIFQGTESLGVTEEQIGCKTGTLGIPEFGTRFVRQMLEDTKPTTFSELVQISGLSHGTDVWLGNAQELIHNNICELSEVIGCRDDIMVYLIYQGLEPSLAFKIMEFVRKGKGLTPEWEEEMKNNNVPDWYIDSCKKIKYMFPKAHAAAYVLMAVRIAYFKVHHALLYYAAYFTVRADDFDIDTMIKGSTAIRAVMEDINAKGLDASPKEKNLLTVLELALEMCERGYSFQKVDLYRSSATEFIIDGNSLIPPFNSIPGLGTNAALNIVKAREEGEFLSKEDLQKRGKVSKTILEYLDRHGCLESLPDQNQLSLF
Outline: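 Isolated B. subtilis Pol IIIC (0.025–0.06 units) run 10 min at 30°C in 30 mM Tris pH 7.5, 10 mM Mg acetate, 4 mM DTT, 20% glycerol. Substrates were 0.4 mg/ml activated calf thymus DNA, 25 µM dNTPs and 10 µM [3H]dTTP, with dGTP or dATP omitted per compound structure.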

B. subtilis = experiment: Minimal Inhibitory Concentration (MIC) determination, 96 well plates; assay type: cell-based, Bacillus subtilis; conditions: Bacillus subtilis; HBI medium, 16 to 18 hours at 37°C; read-out: MIC (µg/ml) B. subtilis
Outline: (§1)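 Broth growth in Heart-Brain Infusion medium, seeded at about 1x10^5 CFU/ml, 16 to 18 hours at 37°C. Growth read at OD 600 nm as percent of untreated control; five concentrations per drug, five data points each, MIC reported in µg/ml.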

S. aureus = experiment: as above; assay type: cell-based, Staphylococcus aureus; conditions: Staphylococcus aureus, read-out: MIC (µg/ml) S. aureus
Outline: (§2)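 Cultures seeded at approximately 1x10^5 CFU/ml in Heart-Brain Infusion medium were exposed to five compound concentrations, five data points each, for 16 to 18 hours at 37°C. Growth at OD 600 nm was expressed as percent of control, and MIC values are given in µg/ml.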

S.aureus (Smith) = experiment: as above; assay type: cell-based, Staphylococcus aureus; conditions: Staphylococcus aureus
Outline: as §1

E. coli = experiment: as above; assay type: cell-based, Escherichia coli; conditions: Escherichia coli; HBI medium, 16 to 18 hours at 37°C; read-out: MIC (µg/ml) E. coli
Outline: as §2

[1] = HBI medium, 16 to 18 hours at 37°C
[2] = HBI medium, 16 to 18 hours at 37°C, read-out: MIC (µg/ml) S.aureus (Smith)
[3] = table of MSSA/MRSA strains, read-out: MIC (µg/ml) S. aureus (Smith)

| SMILES | Ki (B. subtilis Pol IIIC) [µM] | MIC (B. subtilis) [µg/mL] | MIC (S. aureus; [1]) [µg/mL] | MIC (S. aureus; table of MSSA/MRSA strains) [µg/mL] | MIC (S.aureus (Smith); [2]) [µg/mL] | MIC (S.aureus (Smith); [3]) [µg/mL] | MIC (E. coli) [µg/mL] |
| --- | --- | --- | --- | --- | --- | --- | --- |
| CCc1cc(Nc2cc(=O)n(CCCCN3CCN(c4cc5c(cc4F)c(=O)c(C(=O)O)cn5C4CC4)CC3)c(=O)[nH]2)ccc1C [Compound 2, 3-{4-[1-(1-cyclopropyl-3-carboxy-4-oxo-6-fluoro-7-quinolyl)-4-piperazinyl]butyl}-6-(3-ethyl-4-methylanilino)uracil] | 0.024 | 0.156 (≈ 0.247 µM) | 0.625 (≈ 0.991 µM) | 0.625 (≈ 0.991 µM) | 0.313 (≈ 0.496 µM) | 0.313 (≈ 0.496 µM) | 2.5 (≈ 3.96 µM) |
| CCc1cc(Nc2cc(=O)n(CCCCN3CCN(c4cc5c(cc4F)c(=O)c(C(=O)O)cn5C4CC4)CC3)c(=O)[nH]2)ccc1C.CS(=O)(=O)O [Compound 10, 3-{4-[1-(1-cyclopropyl-3-carboxy-4-oxo-6-fluoro-7-quinolyl)-4-piperazinyl]butyl}-6-(3-ethyl-4-methylanilino)uracil methanesulfonate] | 0.018 | 0.313 | 0.625 | 0.625 | 0.625 | 0.625 | 5 |
| CCc1cc(Nc2cc(=O)n(CCCCN3CCN(c4c(F)cc5c(=O)c(C(=O)O)cn(C6CC6)c5c4F)CC3C)c(=O)[nH]2)ccc1C (stereo not drawn) [Compound 70, 3-{4-[1-(1-cyclopropyl-3-carboxy-4-oxo-6,8-difluoro-7-quinolyl)-3-methyl-4-piperazinyl]butyl}-6-(3-ethyl-4-methylanilino)uracil] | 0.019 | 0.156 (≈ 0.235 µM) | 0.313 (≈ 0.472 µM) | 0.39 (≈ 0.588 µM) | 0.156 (≈ 0.235 µM) | 0.21 (≈ 0.317 µM) | > 80 |
